Assay results taken from US20150105252A1, “SUBSTITUTED PYRAZOLES AS HERBICIDES” (E I DU PONT DE NEMOURS AND COMPANY, priority 2013, published 2015).

What was measured:
[1] = test system: wheat; experiment: Test A postemergence; format: in vivo, Triticum aestivum
Method in brief: (§1)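 Seeds were sown in a loam soil–sand blend and given a directed soil spray preemergence; postemergence plants at 2–10 cm, one- to two-leaf stage, were sprayed with compound in non-phytotoxic solvent with surfactant. After about 10 days in a greenhouse, injury was visually rated against untreated controls (0 = no effect, 100 = complete control).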

[2] = test system: corn; experiment: Test A preemergence; format: in vivo, Zea mays; conditions: preemergence; for Corn plant response rating (0 to 100 scale): visual injury approx. 10 days after treatment
Method in brief: as §1

[3] = test system: sedge, umbrella; experiment: Test B flood; format: in vivo, Cyperus difformis; conditions: 250 g ai/ha, visual rating on 0 to 100 scale (0 no effect, 100 complete control), 13 to 15 days
Method in brief: (§2)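 Each compound is applied to the floodwater of pots holding 2-leaf seedlings, water standing 3 cm over the soil throughout. Plants stay in a greenhouse 13 to 15 days before visual scoring against controls from 0 (no effect) to 100 (complete control).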

[4] = test system: corn; experiment: Test A postemergence; format: in vivo, Zea mays
Method in brief: as §1

[5] = test system: crabgrass, large; experiment: Test A preemergence; format: in vivo, Digitaria sanguinalis; conditions: preemergence; for Crabgrass, Large plant response rating (0 to 100 scale): visual injury approx. 10 days after treatment
Method in brief: as §1

[6] = test system: crabgrass, large; experiment: Test A postemergence; format: in vivo, Digitaria sanguinalis
Method in brief: as §1

[7] = test system: pigweed; experiment: Test A postemergence; format: in vivo, Amaranthus retroflexus
Method in brief: as §1

[8] = test system: sedge, umbrella; experiment: Test C flooded paddy test; format: in vivo, Cyperus difformis; conditions: Flood
Method in brief: (§3)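 In-water treatment: compound dosed into 3 cm flood over soil, water level unchanged throughout. Controls run alongside; visual assessment at day 13–15.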

[9] = test system: velvetleaf; experiment: Test A preemergence; format: in vivo, Abutilon theophrasti; conditions: preemergence; for Velvetleaf plant response rating (0 to 100 scale): visual injury approx. 10 days after treatment
Method in brief: as §1

[10] = test system: barnyardgrass; experiment: Test C flooded paddy test; format: in vivo, Echinochloa crus-galli; conditions: Flood
Method in brief: as §3

[11] = test system: ducksalad; experiment: Test B flood; format: in vivo, Heteranthera limosa; conditions: 250 g ai/ha, visual rating on 0 to 100 scale (0 no effect, 100 complete control), 13 to 15 days
Method in brief: as §2

[12] = test system: rice; experiment: Test C flooded paddy test; format: in vivo, Oryza sativa; conditions: Flood
Method in brief: as §3

[13] = test system: ducksalad; experiment: Test C flooded paddy test; format: in vivo, Heteranthera limosa; conditions: Flood
Method in brief: as §3

[14] = test system: pigweed; experiment: Test A preemergence; format: in vivo, Amaranthus retroflexus; conditions: preemergence; for Pigweed plant response rating (0 to 100 scale): visual injury approx. 10 days after treatment
Method in brief: as §1

[15] = test system: rice; experiment: Test B flood; format: in vivo, Oryza sativa; conditions: 250 g ai/ha, visual rating on 0 to 100 scale (0 no effect, 100 complete control), 13 to 15 days
Method in brief: as §2

[16] = test system: morningglory; experiment: Test A preemergence; format: in vivo, Ipomoea spp.; conditions: preemergence; for Morningglory plant response rating (0 to 100 scale): visual injury approx. 10 days after treatment
Method in brief: as §1

[17] = test system: barnyardgrass; experiment: Test A postemergence; format: in vivo, Echinochloa crus-galli
Method in brief: as §1

[18] = test system: foxtail, giant; experiment: Test A postemergence; format: in vivo, Setaria faberii
Method in brief: as §1

[19] = test system: wheat; experiment: Test A preemergence; format: in vivo, Triticum aestivum; conditions: preemergence; for Wheat plant response rating (0 to 100 scale): visual injury approx. 10 days after treatment
Method in brief: as §1

[20] = test system: barnyardgrass; experiment: Test A preemergence; format: in vivo, Echinochloa crus-galli; conditions: preemergence
Method in brief: as §1

[21] = test system: barnyardgrass; experiment: Test B flood; format: in vivo, Echinochloa crus-galli; conditions: 250 g ai/ha, visual rating on 0 to 100 scale (0 no effect, 100 complete control), 13 to 15 days
Method in brief: as §2

[22] = test system: foxtail, giant; experiment: Test A preemergence; format: in vivo, Setaria faberii; conditions: preemergence; for Foxtail, Giant plant response rating (0 to 100 scale): visual injury approx. 10 days after treatment
Method in brief: as §1

[23] = test system: morningglory; experiment: Test A postemergence; format: in vivo, Ipomoea spp.
Method in brief: as §1

[24] = test system: velvetleaf; experiment: Test A postemergence; format: in vivo, Abutilon theophrasti
Method in brief: as §1

[25] = Postemergence, 500 g ai/ha, 0 to 100 scale (0 no effect, 100 complete control)
[26] = postemergence, 125 g ai/ha, about 10 days, visual rating on 0 to 100 scale (0 no effect, 100 complete control)
[27] = 125 g ai/ha, visual injury, 0 to 100 scale, approx. 10 days
[28] = 500 g ai/ha, visual injury after approx. 10 days, 0 to 100 scale (0 no effect, 100 complete control)
[29] = 31 g ai/ha, scale 0 to 100 (0 no effect, 100 complete control)
[30] = 62 g ai/ha, scale 0 to 100 (0 no effect, 100 complete control)

Compound: CCCCNC(=O)c1cc(CC)n(Cc2ccnc(C(F)(F)F)c2)n1 [Compound 141]
- Wheat plant response rating [1, 25]: 80
- Wheat plant response rating [1, 26]: 30
- Corn plant response rating [2, 27]: 40
- Corn plant response rating [2, 28]: 80
- Plant response rating, Sedge, Umbrella [3]: 95
- Corn plant response rating [4, 25]: 90
- Corn plant response rating [4, 26]: 50
- Crabgrass, Large plant response rating [5, 27]: 100
- Crabgrass, Large plant response rating [5, 28]: 100
- Crabgrass, Large plant response rating [6, 25]: 90
- Crabgrass, Large plant response rating [6, 26]: 70
- Pigweed plant response rating [7, 25]: 100
- Pigweed plant response rating [7, 26]: 60
- Plant response rating, Sedge, Umbrella [8, 29]: 30
- Plant response rating, Sedge, Umbrella [8, 30]: 70
- Plant response rating, Sedge, Umbrella ([8]; 125 g ai/ha, scale 0 to 100): 95
- Plant response rating, Sedge, Umbrella ([8]; 250 g ai/ha, scale 0 to 100): 100
- Velvetleaf plant response rating [9, 27]: 10
- Velvetleaf plant response rating [9, 28]: 50
- Plant response rating, Barnyardgrass [10, 29]: 0
- Plant response rating, Barnyardgrass [10, 30]: 0
- Plant response rating, Barnyardgrass ([10]; 125 g ai/ha, scale 0 to 100): 20
- Plant response rating, Barnyardgrass ([10]; 250 g ai/ha, scale 0 to 100): 35
- Plant response rating, Ducksalad [11]: 100
- Plant response rating, Rice [12, 29]: 0
- Plant response rating, Rice [12, 30]: 0
- Plant response rating, Rice ([12]; 125 g ai/ha, scale 0 to 100): 20
- Plant response rating, Rice ([12]; 250 g ai/ha, scale 0 to 100): 20
- Plant response rating, Ducksalad [13, 29]: 40
- Plant response rating, Ducksalad [13, 30]: 80
- Plant response rating, Ducksalad ([13]; 125 g ai/ha, scale 0 to 100): 95
- Plant response rating, Ducksalad ([13]; 250 g ai/ha, scale 0 to 100): 100
- Pigweed plant response rating [14, 27]: 100
- Pigweed plant response rating [14, 28]: 100
- Plant response rating, Rice [15]: 20
- Morningglory plant response rating [16, 27]: 50
- Morningglory plant response rating [16, 28]: 100
- Barnyardgrass plant response rating [17, 25]: 80
- Barnyardgrass plant response rating [17, 26]: 40
- Foxtail, Giant plant response rating [18, 25]: 90
- Foxtail, Giant plant response rating [18, 26]: 80
- Wheat plant response rating [19, 27]: 30
- Wheat plant response rating [19, 28]: 90
- Barnyardgrass plant response rating [20, 27]: 70
- Barnyardgrass plant response rating [20, 28]: 100
- Plant response rating, Barnyardgrass [21]: 45
- Foxtail, Giant plant response rating [22, 27]: 90
- Foxtail, Giant plant response rating [22, 28]: 100
- Morningglory plant response rating [23, 25]: 100
- Morningglory plant response rating [23, 26]: 90
- Velvetleaf plant response rating [24, 25]: 100
- Velvetleaf plant response rating [24, 26]: 30

Compound: CCc1cc(C(=O)NC(C)C)nn1Cc1ccnc(OCC(F)(F)F)c1 [Compound 149]
- Wheat plant response rating [1, 25]: 60
- Wheat plant response rating [1, 26]: 20
- Corn plant response rating (0 to 100 scale) ([2]; 125 g ai/ha): 0
- Corn plant response rating [2, 28]: 30
- Plant response rating, Sedge, Umbrella [3]: 95
- Corn plant response rating [4, 25]: 80
- Corn plant response rating [4, 26]: 40
- Crabgrass, Large plant response rating (0 to 100 scale) ([5]; 125 g ai/ha): 100
- Crabgrass, Large plant response rating [5, 28]: 100
- Crabgrass, Large plant response rating [6, 25]: 90
- Crabgrass, Large plant response rating [6, 26]: 40
- Pigweed plant response rating [7, 25]: 100
- Pigweed plant response rating [7, 26]: 90
- Plant response rating, Sedge, Umbrella [8, 29]: 60
- Plant response rating, Sedge, Umbrella [8, 30]: 70
- Plant response rating, Sedge, Umbrella ([8]; 125 g ai/ha, scale 0 to 100): 80
- Velvetleaf plant response rating (0 to 100 scale) ([9]; 125 g ai/ha): 20
- Velvetleaf plant response rating [9, 28]: 90
- Plant response rating, Barnyardgrass [10, 29]: 0
- Plant response rating, Barnyardgrass [10, 30]: 0
- Plant response rating, Barnyardgrass ([10]; 125 g ai/ha, scale 0 to 100): 0
- Plant response rating, Ducksalad [11]: 95
- Plant response rating, Rice [12, 29]: 0
- Plant response rating, Rice [12, 30]: 0
- Plant response rating, Rice ([12]; 125 g ai/ha, scale 0 to 100): 0
- Plant response rating, Ducksalad [13, 29]: 0
- Plant response rating, Ducksalad [13, 30]: 55
- Plant response rating, Ducksalad ([13]; 125 g ai/ha, scale 0 to 100): 70
- Pigweed plant response rating (0 to 100 scale) ([14]; 125 g ai/ha): 80
- Pigweed plant response rating [14, 28]: 100
- Plant response rating, Rice [15]: 10
- Morningglory plant response rating (0 to 100 scale) ([16]; 125 g ai/ha): 10
- Morningglory plant response rating [16, 28]: 100
- Barnyardgrass plant response rating [17, 25]: 80
- Barnyardgrass plant response rating [17, 26]: 30
- Foxtail, Giant plant response rating [18, 25]: 80
- Foxtail, Giant plant response rating [18, 26]: 70
- Wheat plant response rating (0 to 100 scale) ([19]; 125 g ai/ha): 0
- Wheat plant response rating [19, 28]: 50
- Barnyardgrass plant response rating [20, 27]: 10
- Barnyardgrass plant response rating [20, 28]: 60
- Plant response rating, Barnyardgrass [21]: 30
- Foxtail, Giant plant response rating (0 to 100 scale) ([22]; 125 g ai/ha): 70
- Foxtail, Giant plant response rating [22, 28]: 100
- Morningglory plant response rating [23, 25]: 100
- Morningglory plant response rating [23, 26]: 60
- Velvetleaf plant response rating [24, 25]: 90
- Velvetleaf plant response rating [24, 26]: 30

Compound: CCCNC(=O)c1cc(COC)n(Cc2ccnc(C(F)(F)F)c2)n1 [Compound 168]
- Wheat plant response rating [1, 25]: 40
- Wheat plant response rating [1, 26]: 0
- Corn plant response rating (0 to 100 scale) ([2]; 125 g ai/ha): 0
- Corn plant response rating [2, 28]: 20
- Plant response rating, Sedge, Umbrella [3]: 90
- Corn plant response rating [4, 25]: 80
- Corn plant response rating [4, 26]: 20
- Crabgrass, Large plant response rating (0 to 100 scale) ([5]; 125 g ai/ha): 100
- Crabgrass, Large plant response rating [5, 28]: 100
- Crabgrass, Large plant response rating [6, 25]: 90
- Crabgrass, Large plant response rating [6, 26]: 60
- Pigweed plant response rating [7, 25]: 100
- Pigweed plant response rating [7, 26]: 80
- Plant response rating, Sedge, Umbrella [8, 29]: 0
- Plant response rating, Sedge, Umbrella [8, 30]: 50
- Plant response rating, Sedge, Umbrella ([8]; 125 g ai/ha, scale 0 to 100): 80
- Velvetleaf plant response rating (0 to 100 scale) ([9]; 125 g ai/ha): 20
- Velvetleaf plant response rating [9, 28]: 100
- Plant response rating, Barnyardgrass [10, 29]: 0
- Plant response rating, Barnyardgrass [10, 30]: 0
- Plant response rating, Barnyardgrass ([10]; 125 g ai/ha, scale 0 to 100): 0
- Plant response rating, Ducksalad [11]: 90
- Plant response rating, Rice [12, 29]: 0
- Plant response rating, Rice [12, 30]: 0
- Plant response rating, Rice ([12]; 125 g ai/ha, scale 0 to 100): 0
- Plant response rating, Ducksalad [13, 29]: 0
- Plant response rating, Ducksalad [13, 30]: 50
- Plant response rating, Ducksalad ([13]; 125 g ai/ha, scale 0 to 100): 70
- Pigweed plant response rating (0 to 100 scale) ([14]; 125 g ai/ha): 100
- Pigweed plant response rating [14, 28]: 100
- Plant response rating, Rice [15]: 20
- Morningglory plant response rating (0 to 100 scale) ([16]; 125 g ai/ha): 80
- Morningglory plant response rating [16, 28]: 100
- Barnyardgrass plant response rating [17, 25]: 90
- Barnyardgrass plant response rating [17, 26]: 50
- Foxtail, Giant plant response rating [18, 25]: 90
- Foxtail, Giant plant response rating [18, 26]: 60
- Wheat plant response rating (0 to 100 scale) ([19]; 125 g ai/ha): 10
- Wheat plant response rating [19, 28]: 70
- Barnyardgrass plant response rating [20, 27]: 20
- Barnyardgrass plant response rating [20, 28]: 100
- Plant response rating, Barnyardgrass [21]: 20
- Foxtail, Giant plant response rating (0 to 100 scale) ([22]; 125 g ai/ha): 90
- Foxtail, Giant plant response rating [22, 28]: 100
- Morningglory plant response rating [23, 25]: 100
- Morningglory plant response rating [23, 26]: 70
- Velvetleaf plant response rating [24, 25]: 70
- Velvetleaf plant response rating [24, 26]: 40
